Reference: US10208033B2, “β-carboline, dihydro-β-carboline and tetrahydro-β-carboline alkaloid derivatives and preparation methods same and use in aspects of preventing and treating plant viruses, fungicides and insecticides” (NANKAI UNIVERSITY, priority 2013, dated 2019)

How the values were obtained:
Bipolaria maydis = assay: organism not typed; assay type: cell-based; details: read-out: Bactericidal activity (%) Bipolaria maydis
Phytophthora capsici = assay: Fungicidal (bactericidal) activity in vitro, PDA colony diameter; assay type: cell-based; details: Phytophthora capsici, 96 h; 50 mg/kg
cucumber fusarium wilt = assay: as above; assay type: cell-based; details: Fusarium, 96 h; 50 mg/kg
Rhizoctonia cereali = assay: as above; assay type: cell-based; details: Rhizoctonia, 96 h; 50 mg/kg
Macrophoma kawatsukai = assay: as above; assay type: cell-based; details: 50 mg/kg
Fusarium graminearumt = assay: microbe, parasite or virus in culture; assay type: cell-based; details: Fusarium, 96 h, read-out: Bactericidal activity (%) Fusarium graminearumt
Alternaria solani = assay: Fungicidal (bactericidal) activity in vitro, PDA colony diameter; assay type: cell-based; details: Alternaria solani, 96 h; 50 mg/kg
Fusarium fujikuroi = assay: as above; assay type: cell-based; details: Fusarium fujikuroi, 96 h; 50 mg/kg
[1] = tested on: tobacco mosaic virus (TMV); assay: Anti-TMV in vivo therapeutic effect; set-up: species or system tobacco mosaic virus (host Nicotiana tabacum L.cv.Xanthi NN); details: Tobacco mosaic virus, read-out: Relative inhibition rate (%) In vivo therapy
[2] = tested on: tobacco mosaic virus (TMV); assay: Anti-TMV in vitro effect (half-leaf soaking); assay type: cell-based, tobacco mosaic virus (host Nicotiana tabacum L.cv.Xanthi NN); details: Tobacco mosaic virus, read-out: Relative inhibition rate (%) In vitro activity
corn borers = assay: whole plant or invertebrate; details: read-out: Corn borer Mortality (%)
Botrytis cinerea = assay: Fungicidal (bactericidal) activity in vitro, PDA colony diameter; assay type: cell-based; details: Botrytis cinerea, 96 h; 50 mg/kg
[3] = tested on: tobacco mosaic virus (TMV); assay: Anti-TMV in vivo protective effect; set-up: species or system tobacco mosaic virus (host Nicotiana tabacum L.cv.Xanthi NN); details: Tobacco mosaic virus, read-out: Relative inhibition rate (%) In vivo protection
[4] = tested on: tobacco mosaic virus (TMV); assay: Anti-TMV in vivo inactivation; set-up: species or system tobacco mosaic virus (host Nicotiana tabacum L.cv.Xanthi NN); details: Tobacco mosaic virus, read-out: Relative inhibition rate (%) In vivo inactivation
armyworms = assay type: in vivo; details: concentration 600 mg/kg
mosquito larvae = assay: whole plant or invertebrate; details: for mortality at 5 mg/kg / mortality at 10 mg/kg: Culex pipiens, 24 h, read-out: Mosquito larvae Mortality (%)
Method in brief: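 Compound dissolved in acetone (or other solvent) to a 1000 ppm stock and diluted in water to 5 ppm. Ten Culex pipiens pallens larvae at the start of the fourth instar, laboratory-reared, added per beaker; solvent-only aqueous control.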

Rhizoctonia solani = assay: Fungicidal (bactericidal) activity in vitro, PDA colony diameter; assay type: cell-based; details: Rhizoctonia solani, 96 h; 50 mg/kg
cotton bollworms = assay: whole plant or invertebrate; details: Helicoverpa armigera, in Gossypium hirsutum, read-out: Cotton bollworm Mortality (%)
Method: Experimental method of cotton bollworms: feed and drug mixing method: measure 3 mL of prepared solution and add it to about 27 g of newly prepared feed, thereby obtaining needed concentration through dilution by 10 times.

potato late blight = assay: microbe, parasite or virus in culture; assay type: cell-based; details: Phytophthora infestans, 96 h, read-out: Bactericidal activity (%) potato late blight
Cercospora arachidicola = assay: Fungicidal (bactericidal) activity in vitro, PDA colony diameter; assay type: cell-based; details: Mycosphaerella arachidis, 96 h; 50 mg/kg
[5] = tested on: Colletotrichum orbiculare; assay: as above; assay type: cell-based; details: Colletotrichum orbiculare, 96 h; 50 mg/kg
Sclerotinia scleotiorum = assay: as above; assay type: cell-based; details: Sclerotinia, 96 h; 50 mg/kg

Structure (SMILES) | inhibition at 50 mg/kg (Bipolaria maydis) [%] | inhibition of growth at 50 mg/kg (Phytophthora capsici) [%] | inhibition of growth at 50 mg/kg (cucumber fusarium wilt) [%] | inhibition of growth at 50 mg/kg (Rhizoctonia cereali) [%] | inhibition at 50 mg/kg (Macrophoma kawatsukai) [%] | inhibition of growth at 50 mg/kg (Fusarium graminearumt) [%] | inhibition of growth at 50 mg/kg (Alternaria solani) [%] | inhibition of growth at 50 mg/kg (Fusarium fujikuroi) [%] | inhibition at 100 µg/mL ([1]; treatment dose 100 μg/mL) [%] | inhibition at 500 µg/mL ([1]; treatment dose 500 μg/mL) [%] | inhibition at 100 µg/mL ([2]; treatment dose 100 μg/mL) [%] | inhibition at 500 µg/mL ([2]; treatment dose 500 μg/mL) [%] | mortality at 600 mg/kg (corn borers) [%] | inhibition of growth at 50 mg/kg (Botrytis cinerea) [%] | inhibition at 100 µg/mL ([3]; treatment dose 100 μg/mL) [%] | inhibition at 500 µg/mL ([3]; treatment dose 500 μg/mL) [%] | inhibition at 100 µg/mL ([4]; treatment dose 100 μg/mL) [%] | Armyworm Mortality (%) (armyworms) | mortality at 10 mg/kg (mosquito larvae) [%] | mortality at 600 mg/kg (cotton bollworms) [%] | also measured
C[C@@H]1N[C@H](C(=O)NC2CCCCC2)Cc2c1[nH]c1ccccc21 [Ib-17, (1S, 3S)—N-cyclohexyl-1-methyl-2,3,4,9-tetrahydro-pyridino [3,4-b] indol-3-formamide] | 45.5 | 37.5 | 34.6 | 71.1 | 47.6 | 59.5 | 52.6 | 28.6 | 15.1 | 44.6 | 0 | 38.8 | 40 | 27.3 | 14.2 | 37.1 | 12.3 | 45 | 100 | 30 | inhibition at 500 µg/mL ([4]; treatment dose 500 μg/mL): 43.3%; mortality at 5 mg/kg (mosquito larvae): 10%; inhibition of growth at 50 mg/kg (Rhizoctonia solani): 50%; inhibition of growth at 50 mg/kg (potato late blight): 31.8%; inhibition of growth at 50 mg/kg (Cercospora arachidicola): 69.2%; inhibition of growth at 50 mg/kg [5]: 50%; inhibition of growth at 50 mg/kg (Sclerotinia scleotiorum): 33.3%
COc1ccc2c3c([nH]c2c1)C(C)NCC3 (centres unmarked) [Tetrahydroharmine] | – | – | – | – | – | – | – | – | 27.3 | 55.5 | 28.7 | 58.2 | 0 | – | 24.2 | 54.6 | 26.4 | 0 | 15 | 10 | inhibition at 500 µg/mL ([4]; treatment dose 500 μg/mL): 59.8%
Cc1nccc2c1[nH]c1cc(O)ccc12 [Harmol] | 31.8 | 25 | 26.9 | 42.1 | 23.8 | 23.8 | 26.3 | 28.6 | – | – | – | – | 45 | 9.1 | – | – | – | 50 | 100 | 20 | inhibition at 100 µg/mL [1]: 0%; inhibition at 500 µg/mL [1]: 30%; inhibition at 100 µg/mL [2]: 0%; inhibition at 500 µg/mL [2]: 32.6%; inhibition at 100 µg/mL [3]: 9.5%; inhibition at 500 µg/mL [3]: 36.7%; inhibition at 100 µg/mL [4]: 0%; inhibition at 500 µg/mL [4]: 35.1%; mortality at 5 mg/kg (mosquito larvae): 30%; inhibition of growth at 50 mg/kg (Rhizoctonia solani): 50%; inhibition of growth at 50 mg/kg (potato late blight): 22.7%; inhibition of growth at 50 mg/kg (Cercospora arachidicola): 46.2%; inhibition of growth at 50 mg/kg [5]: 46.4%; inhibition of growth at 50 mg/kg (Sclerotinia scleotiorum): 5.9%
O=C(O)[C@@H]1Cc2c([nH]c3ccccc23)[C@H](c2ccccc2)N1 [Ib-5, (1S, 3S)-1-phenyl-2,3,4,9-tetrahydropyridino [3,4-b] indol-3-formic acid] | 22.7 | 12.5 | 19.2 | 44.7 | 11.9 | 26.2 | 15.8 | 42.9 | 0 | 24.3 | 0 | 19.7 | 35 | 21.2 | 0 | 32.3 | 0 | 50 | 100 | 30 | inhibition at 500 µg/mL ([4]; treatment dose 500 μg/mL): 27.6%; mortality at 5 mg/kg (mosquito larvae): 30%; inhibition of growth at 50 mg/kg (Rhizoctonia solani): 36.8%; inhibition of growth at 50 mg/kg (potato late blight): 22.7%; inhibition of growth at 50 mg/kg (Cercospora arachidicola): 69.2%; inhibition of growth at 50 mg/kg [5]: 35.7%; inhibition of growth at 50 mg/kg (Sclerotinia scleotiorum): 9.8%
C[C@H]1N[C@@H](C(=O)O)Cc2c1[nH]c1ccccc21 [Ib-2, (1R,3R)-1-methyl-2,3,4,9-tetrahydropyridino [3,4-b] indol-3-formic acid] | 9.1 | 15.6 | 23.1 | 31.6 | 23.8 | 21.4 | 0 | 0 | 0 | 31.5 | 0 | 25 | 10 | 18.2 | 0 | 29.7 | 0 | 10 | 30 | 25 | inhibition at 500 µg/mL ([4]; treatment dose 500 μg/mL): 28.6%; inhibition of growth at 50 mg/kg (Rhizoctonia solani): 29%; inhibition of growth at 50 mg/kg (potato late blight): 4.6%; inhibition of growth at 50 mg/kg (Cercospora arachidicola): 61.5%; inhibition of growth at 50 mg/kg [5]: 25%; inhibition of growth at 50 mg/kg (Sclerotinia scleotiorum): 23.5%
Cc1nccc2c1[nH]c1ccc([N+](=O)[O-])cc12 [Ia-3] | 31.6 | 36.4 | 23.8 | 59.4 | 35.3 | 50 | 33.3 | 42.9 | 0 | 18.5 | 0 | 15.7 | 50 | 54.6 | 0 | 26.1 | 0 | 50 | 100 | 35 | inhibition at 500 µg/mL ([4]; treatment dose 500 μg/mL): 21.5%; mortality at 5 mg/kg (mosquito larvae): 60%; activity against culex pipiens larvae (in words) (mosquito larvae; at 5 mg/kg): still show high activity; inhibition of growth at 50 mg/kg (Rhizoctonia solani): 10.7%; inhibition of growth at 50 mg/kg (potato late blight): 25%; inhibition of growth at 50 mg/kg (Cercospora arachidicola): 7.1%; inhibition of growth at 50 mg/kg [5]: 23.8%; inhibition of growth at 50 mg/kg (Sclerotinia scleotiorum): 56%
C[C@@H]1N[C@H](C(=O)NCN(C)C)Cc2c1[nH]c1ccccc21 [Ib-19, (1S, 3S)—N-((dimethylamino)methyl)-1-methyl-2,3,4,9-tetrahydro-pyridino [3,4-b] indol-3-formamide] | 24 | 7.9 | 19.2 | 47.1 | 55.6 | 27.6 | 25 | 21.4 | 0 | 20.9 | 0 | 26.6 | 10 | 27.3 | 0 | 24.7 | 0 | 5 | 20 | 60 | inhibition at 500 µg/mL ([4]; treatment dose 500 μg/mL): 18.5%; inhibition of growth at 50 mg/kg (Rhizoctonia solani): 26.3%; inhibition of growth at 50 mg/kg (potato late blight): 20%; inhibition of growth at 50 mg/kg (Cercospora arachidicola): 41.2%; inhibition of growth at 50 mg/kg [5]: 25.9%; inhibition of growth at 50 mg/kg (Sclerotinia scleotiorum): 35.3%
